Tests used:
Assay type in all cases: cell-based
[1] = system: EGFR wild-type Ba/F3 cells; assay: Ba/F3 cell proliferation assay, EGFR wild-type; conditions: 72 h, Celltiter-Glo cell viability; for GI50: Mus musculus, BaF3, read-out: EGFR WT/BaF3 GI50
Procedure: (§1) EGFR wild-type Ba/F3 cells (Cobioer, Cat. No. CBP73110) in the logarithmic growth phase were seeded into a 96-well plate at 2.5×10^3 cells/[…] in a growth medium, and HER2 wild-type Ba/F3 cells (Cobioer, Cat. No. CBP73110) or HER2 A775_G776insYVMA mutant Ba/F3 (Cobioer, Cat. No. CBP73184) in the logarithmic growth phase were seeded into a 96-well plate at 5×10^3 cells/100 μL in a growth medium.
(§2) The plates were placed in a cell incubator at 37° C. overnight. The compound diluted in 3-fold gradient with a medium was added to the plates at 100 μL/well the next day. All treatments were performed in triplicate. The plates were cultured in the cell incubator at 37° C. for another 72 h. Celltiter-Glo Luminescent cell viability assay was performed.
(§3) The cell proliferation rate corresponding to each well was calculated according to the following formula: proliferation %=(test compound well G3-GO average value)/(DMSO control well G3 average value -GO average value)×100. According to the corresponding proliferation rate and concentration of each gradient concentration well, a gradient curve of cell proliferation was fitted using Prism Graphpad software, and GI50 (GI50 is defined as the concentration of a compound corresponding to the cell proliferation inhibition rate of 50%) of the compound was calculated.

[2] = system: HER2 wild-type Ba/F3 cells; assay: Ba/F3 cell proliferation assay, HER2 wild-type; conditions: Mus musculus, BaF3, 72 h, Celltiter-Glo cell viability; for GI50: read-out: HER2 WT/BaF3 GI50; for Emax: read-out: HER2 WT/BaF3 Imax %
Procedure: as §1, §2, §3

[3] = system: HER2 A775_G776insYVMA mutant Ba/F3; assay: Ba/F3 cell proliferation assay, HER2 A775_G776insYVMA mutant; conditions: Mus musculus, BaF3, 72 h, Celltiter-Glo cell viability; for GI50: read-out: HER2 A775_G776 ins YVMA/BaF3 GI50; for Emax: read-out: HER2 A775_G776 ins YVMA/BaF3 Imax %
Procedure: as §1, §2, §3

In the case of `C=CC(=O)N1[C@@H]2CC[C@H]1C[C@@H](Oc1ccc3ncnc(Nc4ccc(Oc5ccn6ncnc6c5)c(C)c4)c3c1)C2` [Example 1, 1-(endo-3-((4-((4-([1,2,4]Triazolo[1,5-a]pyridin-7-yloxy)-3-methylphenyl)amino)quinazolin-6-yl)oxy)-8-azabicyclo[3.2.1]octan-8-yl)prop-2-en-1-one], the “EGFR WT/BaF3 Imax %” value [1] is reported as 97%, the GI50 [1] is reported as 3.74 µM and the GI50 [2] is reported as 0.0041 µM. It also gave an Emax [2] of 100%, a GI50 [3] of 0.0034 µM and an Emax [3] of 100%.

In the case of `C=CC(=O)N1[C@@H]2CC[C@H]1C[C@@H](Oc1ccc3ncnc(Nc4ccc(Oc5ccc6c(c5)ncn6C)c(C)c4)c3c1)C2` [Example 2, 1-(endo-3-((4-((3-Methyl-4-((1-methyl-1H-benzo[d]imidazol-5-yl)oxy)phenyl)amino)quinazolin-6-yl)oxy)-8-azabicyclo[3.2.1]octan-8-yl)prop-2-en-1-one], the “EGFR WT/BaF3 Imax %” value [1] is reported as 99%, the GI50 [1] is reported as 2.3 µM and the GI50 [2] is reported as 0.0189 µM. For the same compound, the Emax [2] was 100%, the GI50 [3] was 0.024 µM and the Emax [3] was 100%.

Work on `C=CC(=O)N1[C@@H]2CC[C@H]1C[C@H](Oc1cc3c(Nc4ccc(Oc5ccn6ncnc6c5)c(C)c4)ncnc3cc1OC)C2` [Example 6, 1-(exo-3-((4-((4-([1,2,4]Triazolo[1,5-a]pyridin-7-yloxy)-3-methylphenyl)amino)-7-methoxyquinazolin-6-yl)oxy)-8-azabicyclo[3.2.1]octan-8-yl)prop-2-en-1-one] yielded a GI50 [2] of 0.0252 µM, an Emax [2] of 100% and a GI50 [3] of 0.0214 µM. It also gave an Emax [3] of 100%.

`C=CC(=O)N1[C@@H]2CC[C@H]1C[C@H](Oc1ccc3ncnc(Nc4ccc(Oc5cc6ncnn6cn5)c(C)c4)c3c1)C2` [Example 8, 1-(exo-3-((4-((4-([1,2,4]Triazolo[1,5-c]pyrimidin-7-yloxy)-3-methylphenyl)amino)quinazolin-6-yl)oxy)-8-azabicyclo[3.2.1]octan-8-yl)prop-2-en-1-one] gave a GI50 [2] of 0.0063 µM, an Emax [2] of 100% and a GI50 [3] of 0.0157 µM. The Emax [3] was 100%.

In the case of `C=CC(=O)N1[C@@H]2CC[C@H]1C[C@H](Oc1ccc3ncnc(Nc4ccc(Oc5ccn6ncnc6c5)c(C)c4)c3c1)C2` [Example 9, 1-(exo-3-((4-((4-([1,2,4]Triazolo[1,5-a]pyridin-7-yloxy)-3-methylphenyl)amino)quinazolin-6-yl)oxy)-8-azabicyclo[3.2.1]octan-8-yl)prop-2-en-1-one], the GI50 [2] is reported as 0.0135 µM, the Emax [2] is reported as 100% and the GI50 [3] is reported as 0.0138 µM. It also gave an Emax [3] of 100%.

In the case of `C=CC(=O)N1[C@@H]2CC[C@H]1C[C@H](Oc1cc3c(Nc4ccc(Oc5ccn6ncnc6c5)c(C)c4F)ncnc3cc1OC)C2` [Example 13, 1-(exo-3-((4-((4-([1,2,4]Triazolo[1,5-a]pyridin-7-yloxy)-2-fluoro-3-methylphenyl)amino)-7-methoxyquinazolin-6-yl)oxy)-8-azabicyclo[3.2.1]octan-8-yl)prop-2-en-1-one], the GI50 [2] is reported as 0.0048 µM, the Emax [2] is reported as 100% and the GI50 [3] is reported as 0.0082 µM. For the same compound, the Emax [3] was 100%.

`C=CC(=O)N1[C@@H]2CC[C@H]1C[C@H](Oc1cc3c(Nc4ccc(Oc5ccc6c(c5)ncn6C)c(C)c4F)ncnc3cc1OC)C2` [Example 15, 1-(exo-3-((4-((2-Fluoro-3-methyl-4-((1-methyl-1H-benzo[d]imidazol-5-yl)oxy)phenyl)amino)-7-methoxyquinazolin-6-yl)oxy)-8-azabicyclo[3.2.1]octan-8-yl)prop-2-en-1-one] showed a GI50 [2] of 0.0149 µM, an Emax [2] of 100% and a GI50 [3] of 0.0194 µM. For the same compound, the Emax [3] was 100%.

`C=CC(=O)N1[C@@H]2CC[C@H]1C[C@@H](Oc1cc3c(Nc4ccc(Oc5ccn6ncnc6c5)c(C)c4)ncnc3cn1)C2` [Example 16, 1-(endo-3-((4-((4-([1,2,4]Triazolo[1,5-a]pyridin-7-yloxy)-3-methylphenyl)amino)pyrido[3,4-d]pyrimidin-6-yl)oxy)-8-azabicyclo[3.2.1]octan-8-yl)prop-2-en-1-one] was tested, and the “EGFR WT/BaF3 Imax %” value [1] was 73%, the GI50 [1] was 7.35 µM and the GI50 [2] was 0.009 µM. The Emax [2] was 100%, the GI50 [3] was 0.0157 µM and the Emax [3] was 100%.

In the case of `C=CC(=O)N1[C@@H]2CC[C@H]1C[C@@H](Oc1cc3c(Nc4ccc(Oc5ccn6ncnc6c5)c(C)c4F)ncnc3cc1OCC)C2` [Example 17, 1-(endo-3-((4-((4-([1,2,4]Triazolo[1,5-a]pyridin-7-yloxy)-2-fluoro-3-methylphenyl)amino)-7-ethoxyquinazolin-6-yl)oxy)-8-azabicyclo[3.2.1]octan-8-yl)prop-2-en-1-one], the GI50 [2] is reported as 0.0051 µM, the Emax [2] is reported as 100% and the GI50 [3] is reported as 0.0139 µM. For the same compound, the Emax [3] was 100%.

`C=CC(=O)N1[C@@H]2CC[C@H]1C[C@H](Oc1ccc3ncnc(Nc4ccc(Oc5ccc6c(c5)ncn6C)c(C)c4F)c3c1)C2` [Example 19, 1-(exo-3-((4-((2-Fluoro-3-methyl-4-((1-methyl-1H-benzo[d]imidazol-5-yl)oxy)phenyl)amino)quinazolin-6-yl)oxy)-8-azabicyclo[3.2.1]octan-8-yl)prop-2-en-1-one] gave a GI50 [2] of 0.0149 µM, an Emax [2] of 100% and a GI50 [3] of 0.027 µM. The Emax [3] was 100%.

With `C=CC(=O)N1[C@@H]2CC[C@H]1C[C@@H](Oc1cc3c(Nc4ccc(Oc5ccn6ncnc6c5)c(C)c4F)ncnc3cn1)C2` [Example 20, 1-(endo-3-((4-((4-([1,2,4]Triazolo[1,5-a]pyridin-7-yloxy)-2-fluoro-3-methylphenyl)amino)pyrido[3,4-d]pyrimidin-6-yl)oxy)-8-azabicyclo[3.2.1]octan-8-yl)prop-2-en-1-one] the “EGFR WT/BaF3 Imax %” value [1] was 100%, the GI50 [1] was 3.51 µM and the GI50 [2] was 0.0132 µM. The Emax [2] was 100%, the GI50 [3] was 0.0155 µM and the Emax [3] was 100%.

With `C=CC(=O)N1[C@@H]2CC[C@H]1C[C@H](Oc1cc3c(Nc4ccc(Oc5ccn6ncnc6c5)c(C)c4F)ncnc3cn1)C2` [Example 21, 1-(exo-3-((4-((4-([1,2,4]Triazolo[1,5-a]pyridin-7-yloxy)-2-fluoro-3-methylphenyl)amino)pyrido[3,4-d]pyrimidin-6-yl)oxy)-8-azabicyclo[3.2.1]octan-8-yl)prop-2-en-1-one] the “EGFR WT/BaF3 Imax %” value [1] was 100%, the GI50 [1] was 0.913 µM and the GI50 [2] was 0.0053 µM. It also gave an Emax [2] of 100%, a GI50 [3] of 0.0104 µM and an Emax [3] of 100%.

`C=CC(=O)N1[C@@H]2CC[C@H]1C[C@H](Oc1cc3c(Nc4ccc(Oc5ccc6c(c5)ncn6C)c(C)c4F)ncnc3cn1)C2` [Example 27, 1-(exo-3-((4-((2-Fluoro-3-methyl-4-((1-methyl-1H-benzo[d]iimidazol-5-yl)oxy)phenyl)amino)pyrido[3,4-d]pyrimidin-6-yl)oxy)-8-azabicyclo[3.2.1]octan-8-yl)prop-2-en-1-one] was tested, and the GI50 [2] was 0.0125 µM and the Emax [2] was 100%.

With `C=CC(=O)N1[C@@H]2CC[C@H]1C[C@H](Oc1cc3c(Nc4ccc(Oc5ccc6c(c5)ncn6C)c(C)c4)ncnc3cn1)C2` [Example 28, 1-(exo-3-((4-((3-Methyl-4-((1-methyl-1H-benzo[d]iimidazol-5-yl)oxy)phenyl)amino)pyrido[3,4-d]pyrimidin-6-yl)oxy)-8-azabicyclo[3.2.1]octan-8-yl)prop-2-en-1-one] the “EGFR WT/BaF3 Imax %” value [1] was −1.76%, the GI50 [1] was over 10 µM and the GI50 [2] was 0.0181 µM. For the same compound, the Emax [2] was 100%.

`Cc1cc(Nc2ncnc3ccc(NC4=NC(C)(C)CO4)cc23)ccc1Oc1ccn2ncnc2c1` [Tucatinib, tucatinib, reference compound] showed an Emax [3] of 100%.

— patent US20250206760A1, “NITROGEN-CONTAINING HETEROCYCLIC COMPOUND, PREPARATION METHOD THEREFOR, AND PHARMACEUTICAL APPLICATION THEREOF” (Jiangsu Hengrui Pharmaceuticals Co., Ltd., priority 2022, published 2025)
